What was measured:
leukocyte esterase (LE) [1] = assay: internally calibrated electrochemical continuous enzyme assay (ICECEA) with TAPTA as enzyme substrate; format: biochemical; settings: LE concentrations 0-250 μg/L, amperometric current (FIG. 4)
Method: ICECEAs generally follow the following method as described in U.S. 201610040209. First, an enzyme substrate (e.g. an LE and/or HNE substrate of the present disclosure) is placed in a background electrolyte. Next, a reactant or product of an enzymatic reaction of the enzyme is added to the first enzyme substrate/background electrolyte, which creates what is described as a “first assay mixture.” Current flowing through an electrode of the electrochemical assay is then measured after the first assay mixture is formed. Next, the enzyme (e.g. LE and/or HNE) is added to the “first assay mixture” to create a “second assay mixture,” and the current is measured again over a predetermined time period. Enzyme activity is determined based on the change in current over time caused by the addition of the enzyme. […]
The ICECEA includes an electrochemical measuring device. […] The current is measured through the working electrode. […]
Generally, in an ICECEA, adding the reactant/product to the enzyme substrate (in electrolyte) in the electrochemical assay system includes the following steps. […] Current flowing through an electrode of the electrochemical assay system is measured after the first aliquot is added. One or more additional aliquots of the reactant/product are added to the mixture and current flowing through an electrode of the electrochemical assay system is measured again. […]

leukocyte esterase (LE) [2] = assay: screen-printed electrode strip with monoester substrate, voltammograms at varying LE concentrations; format: biochemical; settings: substrate screen-printed on electrode strip; 0.125 U/m to 0.35 U/ml LE (FIG. 7)
From the text: In one embodiment, the substrate of the leukocyte esterase enzyme is screen-printed onto the surfaces of an electrode sensor strips using known and commercially-available techniques and materials.
Specifically, electrode strips were screen printed with the substrate having the structure as depicted in Formula V. The strips were contacted with varying concentrations of LE (i.e. 0.125 U/m to 0.35 U/ml LE).
The plot clearly indicates significant reduction peaks at about −0.17 V, which correspond to the redox reaction of hydroquinone molecules that are released upon cleavage of the monoester by leukocyte esterases at the ester active site. […] Based on this measured level, a determination can be made as to whether the patient's level of LE is high enough to indicate infection.

| Structure (SMILES) | response of LE enzyme activity relative to LE concentration (leukocyte esterase (LE) [1]) | melting point [°C] | relation of reduction peaks to LE activity in the sample (leukocyte esterase (LE) [2]) |
| --- | --- | --- | --- |
| Cc1ccc(S(=O)(=O)N[C@@H](C)C(=O)Oc2ccc(OC(=O)[C@H](C)NS(=O)(=O)c3ccc(C)cc3)cc2)cc1 [TAPTA, 4-((tosyl-L-alanyl)oxy)phenyl tosyl-L-alaninate] | linear response relative to LE concentration | – | – |
| COC(=O)c1cncc(S(=O)(=O)N[C@@H](C)C(=O)Oc2ccc(O)cc2)c1 [monoester] | – | 113 to 116 | directly related to the LE activity within the sample in a dose dependent manner |
